Laboratory results taken from patent publication US9295730B2, “Conjugated molecules comprising a peptide derived from the CD4 receptor coupled to a polyanion for the treatment of AIDS” (Institut Pasteur, priority 2008, dated 2016).
pEC50: −log10 of the molar value. Ends that are not written are not given here.

Tests used:
Assay type in all cases: cell-based
[1] = test system: X4-tropic HIV-1-LAI; test: Antiviral assay, PHA-P-activated PBMC infected with HIV-1-LAI, RT activity in supernatants; conditions: Table 7, VIH-1-LAI; for pEC50: read-out: ED50 (the source's name)
[2] = test system: uninfected PHA-P-activated PBMC; test: Cytotoxicity, MTT assay on day 7
Procedure: (§1) In parallel, cytotoxicity of the samples was evaluated in uninfected PHA-P-activated PBMC by a methyltetrazolium salt (MTT) assay on day 7. Experiments were performed in triplicate and 50, 70 and 90% effective doses and cytotoxic doses were calculated using SoftMaxPro software.

[3] = test system: R5-tropic HIV-1/Ba-L; test: Antiviral assay, PHA-P-activated PBMC infected with HIV-1/Ba-L, RT activity in supernatants; conditions: Table 7, VIH-1/Ba-L
[4] = Cytotoxicity, MTT assay on day 7; conditions: human, uninfected PHA-P-activated PBMC
Procedure: as §1

Substance | ED70 [1] [µM] | ED90 [1] [µM] | pEC50 [1] | Cytotoxicity CT50 [2] [nM] | Cytotoxicity CT70 [2] [nM] | Cytotoxicity CT90 [2] [nM] | ED70 [3] [µM] | ED90 [3] [µM] | pEC50 ([3]; read-out: ED50 (the source's name)) | CC50 at 168 h [4] [µM]
5-aminopentyl[(3-O-benzyl-4-O-(4-methoxybenzyl)-2-O-sulfonato-α-L-idopyranosyluronate)-(1→4)-O-(3-O-benzyl-2-deoxy-2-sulfoamino-6-O-sulfonato-α-D-glucopyranoside)-(1→4)-O-(3-O-benzyl-2-O-sulfonato-α-L-idopyranosyluronate)]-(1→4)-O-3-O-benzyl-2-deoxy-2-sulfoamino-6-O-sulfonato-α-D-glucopyranoside heptasodium salt [HS4Bz] | >1 | >1 | < 6.00 | >1000 | >1000 | >1000 | – | – | – | –
MEDLEETLFEEFENYSYDLDYYSLESC [GPR1] | >1 | >1 | < 6.00 | – | >1000 | >1000 | >1 | >1 | < 6.00 | > 1
